The record followed here is patent US7507727B2, “Substituted quinobenzoxazine analogs and methods of using thereof” (Cylene Pharmaceuticals, Inc., priority 2003, dated 2009).

Like-named read-outs stand apart in the source and are kept apart here.

The assay has as its target c-Myc template DNA (c-myc quadruplex). As to the kind of experiment: Quadruplex binding / stop assay (Taq polymerase arrest, capillary electrophoresis).
The mark [1] stands for this setting: read-out: S DATA, Table 1D, stop assay data.
Where [2] appears, read: read-out: Stop Data c-Myc μM, concentration at which 50% of the DNA was arrested (arrested:full-length 1:1).

For `CN1CCN(CCCNc2ccc3c(=O)c(C(=O)NCCN4CCOCC4)cn4c3c2Oc2cc3ccccc3cc2-4)CC1` [compound 1556], under setting [1], the IC50 worked out at 1.75 µM. On to `CN1CCC(N(C)c2c(F)cc3c(=O)c(C(=O)NCCC4CCCN4C)cn4c3c2Oc2cc3ccccc3cc2-4)CC1` (centres unmarked) [compound 257], for which the IC50 under setting [2] stood at 1.75 µM. Take `CN1CCN(CCCNc2c(F)cc3c(=O)c(C(=O)NCCCN4CCOCC4)cn4c3c2Oc2ccccc2-4)CC1` [compound 1572]: the IC50 under setting [1] was over 15 µM. As to `CN1CCCC1CCNC(=O)c1cn2c3c(c(N4CCC(N)C4)c(F)cc3c1=O)Oc1ccccc1-2` (centres unmarked) [compound 1623], the IC50 under setting [1] is over 15 µM.

For `CN(C)CCCCNC(=O)c1cn2c3c(c(N4CCC(NC(=O)OC(C)(C)C)C4)ccc3c1=O)Oc1cc3ccccc3cc1-2` (centres unmarked) [compound 452], the IC50 under setting [2] was determined as 0.75 µM. Take `CCc1ccc(CCNc2c(F)cc3c(=O)c(C(=O)NCCC4CCCN4C)cn4c3c2Oc2cc3ccccc3cc2-4)cc1OC` (centres unmarked) [compound 1679]: under setting [1], the IC50 stood at 0.69 µM. For `CN(CCc1ccccn1)C(=O)c1ccc2c(c1)Oc1c(NCCCn3ccnc3)c(F)cc3c(=O)c(C(=O)N(C)CCc4ccccn4)cn-2c13` [compound 39], the IC50 under setting [2] is 2.5 µM. Same read-out and setting: with `O=C(NCCN1CCCC1)c1cn2c3cc4c(cc3oc3c(NCCN5CCOCC5)c(F)cc(c1=O)c32)c(=O)c1ccccc14` [compound 419] the figure was 0.75 µM; with `CC(C)(C)OC(=O)NC1CCN(c2c(F)c(N)c3c(=O)c(C(=O)N4CCOCC4)cn4c3c2Oc2cc3ccccc3cc2-4)C1` (centres unmarked) [compound 230], 1.75 µM.

In the case of `CN(C)CC(C)(C)CNC(=O)c1cn2c3c(c(NCCCN4CCN(C)CC4)c(F)cc3c1=O)Oc1ccccc1-2` [compound 1580], under setting [1], the IC50 is over 15 µM. As to `CCN(CC)CCNc1c(F)cc2c(=O)c(C(=O)N3CCOCC3)cn3c2c1Oc1cc2ccccc2cc1-3` [compound 305], the IC50 under setting [2] is 1.05 µM. For the compound `CN1CCCC1CCNC(=O)c1cn2c3c(c(N4CC[C@@H](NC(=O)CCN5CCOCC5)C4)c(F)cc3c1=O)Oc1cc3c(cc1-2)oc1ccccc13` (some centres unmarked) [compound 402], the IC50 under setting [2] turned out to be 0.75 µM.

As for `CN1CCCC1CCNC(=O)c1cn2c3c(c(N4CCC(C#N)(c5ccccc5)CC4)c(F)cc3c1=O)Oc1cc3ccccc3cc1-2` (centres unmarked) [compound 260], the IC50 under setting [2] stood at 1.75 µM.

For the compound `O=C(NCCN1CCOCC1)c1cn2c3c(c(NCCN4CCCC4)c(F)cc3c1=O)Oc1ccccc1-2` [compound 1593], under setting [1], the IC50 was over 15 µM. On to `CN1CCCC1CCNCC(=O)N[C@@H]1CCN(c2c(F)cc3c(=O)c(C(=O)NCCCn4ccnc4)cn4c3c2Oc2cc3c(cc2-4)oc2ccccc23)C1` (some centres unmarked) [compound 414], for which the IC50 under setting [2] came to 0.75 µM. Consider `CC(C)(C)OC(=O)N[C@H]1CCN(c2c(F)cc3c(=O)c(C(=O)NCCN4CCOCC4)cn4c5cc6c(cc5oc2c34)c(=O)c2ccccc26)C1` [compound 208], for which, under setting [2], the IC50 worked out at 1.75 µM. As to `CN1CCC[C@@H]1CCNC(=O)c1cn2c3c(c(N4CCC(c5cnccn5)C4)c(F)cc3c1=O)Oc1cc3ccccc3cc1-2` (some centres unmarked) [compound 1741], under setting [1], the IC50 is 0.74 µM. For the compound `CN1CCCC1CCNC(=O)c1cn2c3c(c(NCC4CCNC4)c(F)cc3c1=O)Oc1cc3ccccc3cc1-2` (centres unmarked) [compound 1617], the IC50 under setting [1] was 0.375 µM.

Take `Cc1cc(CNc2c(F)cc3c(=O)c(C(=O)NCCC4CCCN4C)cn4c3c2Oc2cc3ccccc3cc2-4)no1` (centres unmarked) [compound 1753]: the IC50 under setting [1] was over 15 µM. Regarding `CN(C)CCCCNC(=O)c1cn2c3c(c(N4CC[C@@H](NC(=O)OC(C)(C)C)C4)c(F)cc3c1=O)Oc1cc3ccccc3cc1-2` [compound 66], under setting [2], the IC50 worked out at 2.5 µM. As for `CC1CCCC(C)N1CCCNC(=O)c1cn2c3c(c(N4CCC(N)C4)c(F)cc3c1=O)Oc1cc3ccccc3cc1-2` (centres unmarked) [compound 1713], the IC50 under setting [1] was 0.75 µM. As to `N[C@H]1CCN(C(=O)c2cn3c4cc5c(cc4oc4c(NCCCN6CCOCC6)c(F)cc(c2=O)c43)c(=O)c2ccccc25)C1` [compound 216], the IC50 under setting [2] was 1.75 µM.

As to `CN(C)CCCCNc1ccc2c(=O)c(C(=O)NC3CC(C)(C)NC(C)(C)C3)cn3c2c1Oc1cc2ccccc2cc1-3` [compound 276], the IC50 under setting [2] amounted to 1.75 µM. The same measure, in the same setting: the figure for `CN1CCN(CCCNC(=O)c2cn3c4c(c(N5CC[C@@H](NC(=O)CCN6CCN(C)CC6)C5)c(F)cc4c2=O)Oc2cc4c(cc2-3)oc2ccccc24)CC1` [compound 173] is 1.75 µM. `O=C(NCCN1CCCC1)c1cn2c3c(c(N4CCC(c5cnccn5)C4)ccc3c1=O)Oc1cc3ccccc3cc1-2` (centres unmarked) [compound 1723]: the IC50 under setting [1] came out at 1.5 µM. As to `O=C(O)c1cn2c3c(c(NCCN4CCCC4)c(F)cc3c1=O)Oc1cc3ccccc3cc1-2` [compound 2], under setting [2], the IC50 turned out to be 2.5 µM. Take `CN1CCCC1CCNC(=O)c1cn2c3c(c(SCCc4cnccn4)c(F)cc3c1=O)Oc1ccccc1-2` (centres unmarked) [compound 1779]: the IC50 under setting [1] is over 15 µM. Consider `CN(C)CCCCNC(=O)c1cn2c3c(c(NCCN4CCOCC4)c(F)cc3c1=O)Oc1ccccc1-2` [compound 1610], for which, under setting [1], the IC50 was over 15 µM. Regarding `CCCCOCCCNc1c(F)cc2c(=O)c(C(=O)NCCC3CCCN3C)cn3c2c1Oc1cc2ccccc2cc1-3` (centres unmarked) [compound 1470], the IC50 under setting [2] is 1.75 µM. The same measure, in the same setting: with `CN(C)CCCCNC(=O)c1cn2c3c(c(N4CCC(N)C4)c(F)cc3c1=O)Oc1ccccc1-2` (centres unmarked) [compound 460] the figure was 0.75 µM; with `CC(C)CC(C)(C)CNC(=O)c1cn2c3c(c(N4CCC(NC(=O)OC(C)(C)C)C4)c(F)cc3c1=O)Oc1cc3ccccc3cc1-2` (centres unmarked) [compound 186], 1.75 µM. In the case of `C[C@H](O)CNc1c(F)cc2c(=O)c(C(=O)NCCC3CCCN3C)cn3c2c1Oc1cc2ccccc2cc1-3` (some centres unmarked) [compound 1683], the IC50 under setting [1] worked out at 1.75 µM. Same read-out and setting: the figure for `CN1CCCC1CCNC(=O)c1cn2c3c(c(NCC4OCCO4)c(F)cc3c1=O)Oc1cc3ccccc3cc1-2` (centres unmarked) [compound 1745] is over 15 µM. As for `CN1CCN(CCCNc2c(F)cc3c(=O)c(C(=O)NCCN4CCOCC4)cn4c3c2Oc2cc3c(cc2-4)oc2ccccc23)CC1` [compound 150], the IC50 under setting [2] is 1.75 µM. Still for that read-out and setting: the figure for `CN(C)CCCCNC(=O)c1cn2c3c(c(NCCC4CCCN4C)c(F)cc3c1=O)Oc1cc3ccccc3cc1-2` (centres unmarked) [compound 125] is 1.75 µM. Consider `CN1CCCC1CCNC(=O)c1cn2c3c(c(NCCCNC(=O)OC(C)(C)C)c(F)cc3c1=O)Oc1cc(Cl)ccc1-2` (centres unmarked) [compound 1808], for which, under setting [1], the IC50 was over 15 µM. On the same count and under the same terms, the figure for `CN1CCCC1CCNC(=O)c1cn2c3c(c(N4CCC(C(N)=O)CC4)c(F)cc3c1=O)Oc1cc3ccccc3cc1-2` (centres unmarked) [compound 1493] is 1.75 µM. Turning to `O=C(NCCN1CCOCC1)c1cn2c3c(c(NCCN4CCOCC4)c(F)cc3c1=O)Oc1cc3ccccc3cc1-2` [compound 54], under setting [2], the IC50 turned out to be 2.5 µM. The same measure, in the same setting: with `CN1CCCC1CCNC(=O)c1cn2c3c(c(N4CCC(N)CC4)c(F)cc3c1=O)Oc1cc3ccccc3cc1-2` (centres unmarked) [compound 281] the figure was 1.75 µM; with `CC1(C)CC(NC(=O)c2cn3c4c(c(N5CCC(N)C5)ccc4c2=O)Oc2cc4ccccc4cc2-3)CC(C)(C)N1` (centres unmarked) [compound 558], 0.375 µM. `CCOC(=O)c1cn2c3c(c(N4CCC(c5cnccn5)C4)c(F)cc3c1=O)Oc1ccc(C#N)cc1-2` (centres unmarked) [compound 1775]: the IC50 under setting [1] was over 15 µM. Consider `CN1CCN(CCCNc2ccc3c(=O)c(C(=O)NCCN4CCCC4)cn4c3c2Oc2cc3ccccc3cc2-4)CC1` [compound 454], for which, under setting [2], the IC50 worked out at 0.75 µM. Still for that read-out and setting: the figure for `CN(C)CCCCNc1c(F)cc2c(=O)c(C(=O)NCCCn3ccnc3)cn3c2c1Oc1c-3ccc2ccccc12` [compound 142] is 1.75 µM. On the same count and under the same terms, the figure for `CC(C)(C)OC(=O)N[C@@H]1CCN(c2c(F)cc3c(=O)c(C(=O)NCCCN4CCOCC4)cn4c3c2Oc2cc3ccccc3cc2-4)C1` [compound 62] is 2.5 µM; for `CN(CCCNc1c(F)cc2c(=O)c(C(=O)NCCC3CCCN3C)cn3c2c1Oc1cc2ccccc2cc1-3)c1ccccc1` (centres unmarked) [compound 263] it is 1.75 µM.

Regarding `CN1CCCC1CCNC(=O)c1cn2c3cc4oc5cc([N+](=O)[O-])ccc5[nH]c4cc3oc3c(NCCCN4CCOCC4)c(F)cc(c1=O)c32` (centres unmarked) [compound 408], the IC50 under setting [2] came to 0.75 µM.

For the compound `CN(C)CCNC(=O)c1cn2c3cc4c(=O)c5ccccc5c(=O)c4cc3oc3c(N4CCN(C)CC4)c(F)cc(c1=O)c32` [compound 353], the IC50 under setting [2] is 0.9 µM. As to `CN(C)CCCCNc1c(F)cc2c(=O)c(C(=O)N3CC[C@H](N)C3)cn3c4cc5c(cc4oc1c23)c(=O)c1ccccc15` [compound 217], the IC50 under setting [2] worked out at 1.75 µM. Consider `CN1CCN(CCCNc2c(F)cc3c(=O)c(C(=O)O)cn4c5cc6oc7cc(N)ccc7[nH]c6cc5oc2c34)CC1` [compound 22], for which the IC50 under setting [2] was determined as 0.75 µM. As to `O=C(NCCN1CCCC1)c1cn2c3c(c(N4CCN(C(=O)C(F)(F)F)CC4)c(F)cc3c1=O)Oc1cc(Cl)ccc1-2` [compound 1821], the IC50 under setting [1] is 10 µM. For the compound `CN1CCCC1CCNC(=O)c1cn2c3c(c(N4CCC(c5cnccn5)C4)c(F)cc3c1=O)Oc1ccc(C(N)=O)cc1-2` (centres unmarked) [compound 1773], the IC50 under setting [1] amounted to 6.1 µM. The same measure, in the same setting: with `CN1CCCC1CCNC(=O)c1cn2c3c(c([S+]([O-])CCc4cnccn4)c(F)cc3c1=O)Oc1cc3ccccc3cc1-2` (centres unmarked) [compound 1769] the figure was 10 µM. With `CN1CCCC1CCNC(=O)c1cn2c3c(c(N4CCC(N5CCCC5)CC4)c(F)cc3c1=O)Oc1cc3ccccc3cc1-2` (centres unmarked) [compound 434], under setting [2], the IC50 amounted to 0.75 µM. In the case of `CN1CCC[C@H]1CCNC(=O)c1cn2c3c(c(N4CCC(c5cnccn5)C4)c(F)cc3c1=O)Oc1cc3ccccc3cc1-2` (some centres unmarked) [compound 469], the IC50 under setting [2] stood at 0.73 µM. Consider `CN1CCCC1CCNC(=O)c1cn2c3c(c(N4CCC(NC(=O)OC(C)(C)C)C4)c(F)c(N)c3c1=O)Oc1cc3ccccc3cc1-2` (centres unmarked) [compound 225], for which, under setting [2], the IC50 is 1.75 µM. Turning to `CN1CCCC1CCNC(=O)c1cn2c3c(c(NCCCN4CCOCC4)c(F)cc3c1=O)Oc1cc3ccccc3cc1-2` (centres unmarked) [compound 51], the IC50 under setting [2] was 2.5 µM.

Regarding `CN1CCCC1CCNc1c(F)cc2c(=O)c(C(=O)O)cn3c2c1Oc1cc2ccccc2cc1-3` (centres unmarked) [compound 7], the IC50 under setting [2] was 1.75 µM. Take `CNC1CCN(c2c(F)cc3c(=O)c(C(=O)NCCC4CCCN4C)cn4c3c2Oc2cc3ccccc3cc2-4)C1` (centres unmarked) [compound 430]: the IC50 under setting [2] was found to be 0.75 µM. Turning to `CCN(CC)CCCCNC(=O)c1cn2c3c(c(N4CCC(N)C4)c(F)cc3c1=O)Oc1ccc(Cl)cc1-2` (centres unmarked) [compound 1803], under setting [1], the IC50 stood at 3 µM.
